This note sets out measurements from ChEMBL document CHEMBL5113491, “Discovery of N-benzylarylamide derivatives as novel tubulin polymerization inhibitors capable of activating the Hippo pathway” (Eur J Med Chem, 2022).

In one data set the test system is KYSE-450. In words: Antiproliferative activity against human KYSE-450 cells assessed as inhibition of cell growth measured after 48 hrs by MTT assay. In kind it is functional, cell-based. The following applies: KYSE-450, 48 h.
The test system of a further data set is HGC-27. In words: Antiproliferative activity against human HGC-27 cells assessed as inhibition of cell growth measured after 48 hrs by MTT assay. In kind it is functional, cell-based. The following applies: HGC-27, 48 h. Background: Tetrazolium dyes change colour on reduction, which living cells bring about.
In data set [1] the test system is MGC-803. As to the kind of experiment: Antiproliferative activity against human MGC-803 cells assessed as inhibition of cell growth at 15 to 45 […] by MTT assay. In kind it is functional, cell-based. To be noted: dose 15-45 µmol/L, time <= 72.0 hrs, TDE = time-dependent effect.
Data set [2] in a line: Cytotoxicity against human GES1 cells assessed as reduction in cell viability measured after 48 hrs by MTT assay. In kind it is toxicity, cell-based.
In data set [3] the test system is MGC-803. In words: Downregulation of YAP protein expression in human MGC-803 cells measured after 48 hrs by Western blot analysis. In kind it is functional, cell-based. The following applies: dose 15-45 nmol/L, DDE = dose-dependent effect.
For data set [4], the system named is MGC-803. As to the kind of experiment: Induction of G2/M phase cell cycle arrest in human MGC-803 cells assessed as increase in p-Histone H3 expression at 15 to 45 nmol/L measured after 48 hrs by Western blot analysis. In kind it is functional, cell-based. The following applies: dose 15-45 nmol/L.
The nature of data set [5]: Induction of cell apoptosis in human SGC-7901 cells assessed as increase in apoptotic cells at 45 nmol/L measured after 48 hrs by Annexin V/PI staining based flow cytometric analysis (reference value: 9.28%). In kind it is functional. For orientation: Flow cytometry measures light scatter and fluorescence of single cells or particles in a stream.
Data set [6] relates to MGC-803. As to the kind of experiment: Induction of morphological changes in human MGC-803 cells assessed as change in concentration of nuclei at 15 to 45 nmol/L measured after 48 hrs by DAPI staining based microscopic analysis. In kind it is functional, cell-based. The following applies: dose 15-45 nmol/L.
The subject of a further data set is SGC-7901. In words: Induction of morphological changes in human SGC-7901 cells assessed as cell fragmentation at 15 to 45 nmol/L measured after 48 hrs by bright field microscopic analysis. In kind it is functional, cell-based. The following applies: dose 15-45 nmol/L.

SMILES strings stand for the structures. The source made the active and inactive calls. No cut-off for these calls is given here.

What is called IC50 is the concentration that inhibits the measured activity by half. For the molecule `C/C=C/C(=O)N(Cc1ccc(OC)c(O)c1)c1cc(OC)c(OC)c(OC)c1`, the 50% inhibitory concentration (IC50) is 67 nM in the data set with KYSE-450 and 33 nM in the data set with HGC-27. The Activity entry in the data set on MGC-803 [1] is “Tde”; in the data set on MGC-803 [3], “Dde”; in data set [5], 63.51%. Further, the IC50 at 48 h in [2] is 768 nM. Also, the outcome in the data set with MGC-803 [4], with MGC-803 [6] and with SGC-7901 was Active.
